The test system of this test is Pf Gametocytes. Put plainly: Gametocyte killing assay (DilC1(5), flow cytometry). It counts as cell-based. The settings on record: Plasmodium falciparum; NF54 peg4-tdTomato, 72 hour incubation; read-out: EC50 against Pf Gametocytes. The method, then:
Asexual replication of NF54 peg4-tdTomato parasites was eliminated by treating with 50 mM GlcNAc and 20 U/mL Heparin for 3 days. NF54 peg4-tdTomato parasites then were maintained using standard culture techniques. Gametocytes were induced synchronously according to Fivelman et al., “Improved Synchronous Production of Plasmodium Falciparum Gametocytes in Vitro,” Mol Biochemo Parasitol. 154(1):119-123 (2007), which is hereby incorporated by reference in its entirety. Asexual replication was eliminated by treating with 50 mM GlcNAc for 3 days. Gametocyte killing assays were setup on days 5 and 10 in triplicate 96-well format at 1% hematocrit and 2% gametocytemia. Compounds were setup in triplicate and serially diluted 3-fold. In addition, 6 solvent controls (DMSO) were distributed evenly across the plate. Following a 72 hour incubation, Stage III-IV (Day 5-7) and Stage IV-V (Day 10-12), (start the incubation in the afternoon on Day 5 and Day 10, take out plate for assay on Day8 and Day13 afternoon) cultures were stained with 16 nM Hoechst 33342 and 50 nM DilC1(5) for 30 min at 37 C. Using a Cytek DxP12 flow cytometer, gametocytemia was determined by gating for DNA+, hemozoin-high cells and gametocyte viability was inferred based on mitochondrial membrane potential-dependent accumulation of DilC1(5) for 2000-3000 gametocytes (Tanaka et al., “Potent Plasmodium Falciparum Gametocytocidal Activity of Diaminonaphthoquinones, Lead Antimalarial Chemotypes Identified in an Antimalarial Compound Screen,” Antimicrob. Agents Chemother. 2015, 59:1389 (2015), which is hereby incorporated by reference in its entirety). Mean DilC1(5) signal was normalized to solvent control and the overall minimum and used to calculate the EC50 (FIG. 3 and Table 4).

Consider `CC(C)(C)NC(=O)C[C@H](NC(=O)CCc1ccccc1)C(=O)NCCNC(=O)c1cccc(-c2ccccc2)c1` [PKS21004], for which the 50% effective concentration (EC50) turned out to be 50 nM.

(Values after patent publication US11629141B2, “Proteasome inhibitors and uses thereof” (CORNELL UNIVERSITY, priority 2015, dated 2023).)
